Experimental data taken from patent US10653658B2, “Biofilm inhibiting compositions enhancing weight gain in livestock” (Akeso Biomedical, Inc., priority 2015, dated 2020).
Marks after values point to notes of the source that are not given here.

Tests used:
Campylobacter = Campylobacter cfu/g of caeca at day 42 (Example 10); type: in vivo; conditions: in feed
Experimental: (§1) A study was performed to evaluate growth promotion and reduction of Campylobacter carriage using FeTyr in Ross 308 male broilers with 7 treatment groups. Each treatment group comprised eight replicates of 10 birds per pen (80 birds/treatment group), with 2 control groups and […]. All the test groups and both of the control groups were exposed at day 20 of the trial to dirty litter, which tested positive for Campylobacter. This method was used to provide a more natural method to Campylobacter challenge the birds. Thus there were two positive controls where each treatment group was challenged with Campylobacter, and five treatment groups that were all challenged with Campylobacter. The total number of birds used in the 7 treatment groups was 560.
(§2) At day 20, litter, which was naturally Campylobacter-contaminated, was tested to confirm the presence of Campylobacter, and then added (approximately 2 kg/pen) to the litter in all pens. At day 42, caecal samples were taken and tested for Campylobacter, E. coli and Salmonella enumeration.

[1] = Dose ranging study of FeTyr (TYPLEX) in feed, zootechnical performance of broilers, dirty litter challenge at day 20 (Example 10); type: in vivo, Ross 308 male broilers; conditions: for AFI / AWG / MFCR / AFI/bird/period / AWG/bird/period: 0.22 g Q-PLEX/kg feed
Experimental: as §1
Treatment group 1 was a positive control where birds just received the commercial feed, and were challenged with dirty litter containing Campylobacter at day 20. Treatment group 2 received 0.01 g/kg of TYPLEX (FeTyr) in their feed, and were challenged with dirty litter containing Campylobacter at day 20. Treatment group 3 received 0.02 g/kg of TYPLEX (FeTyr) in their feed, and was challenged with dirty litter containing Campylobacter at day 20. Treatment group 4 received 0.05 g/kg of TYPLEX (FeTyr) in their feed, and was challenged with dirty litter containing Campylobacter at day 20. Treatment group 5 received 0.1 g/kg of TYPLEX (FeTyr) in their feed, and was challenged with dirty litter containing Campylobacter at day 20. Treatment group 6 received 0.2 g/kg of TYPLEX (FeTyr) in their feed, and was challenged with dirty litter containing Campylobacter at day 20. […] The birds were fed with a commercial three-phase feeding program using starter, grower and finisher feeds as described in Example 1. The birds were reared in floor pens to day 42, and fed starter, grower and finisher feed at day 0 to 11, 11 to 24, and 24 to 42 days, respectively. All birds were weighed individually and feed weigh backs recorded per pen at day 0, 11, 21, 24 and 42 days.
as §2
In order to minimize risk of cross-contamination, standard industry biosecurity measures were used including: disinfecting boots, changing overshoes and gloves between pens/treatments, entering Campylobacter negative pens before entering Campylobacter positive pens, and leaving adjacent pens empty. Daily health, culls, and mortality were recorded. All bird weights were recorded at 0, 11, 21, 24, 33 and 42 days. Weight gains, feed intake and feed conversion ratio (FCR) were derived for each feeding period.

[2] = tested on: Campylobacter jejuni NCTC 11168; assay: Biofilm formation on plastic coated UV beads (Example 6); conditions: Fe-Tart and Fe-Cit at 50, 100, and 300 μM; FeQ (QPLEX) at 300

## O=C([O-])C1(O)CC(O)C(O)C(O)C1.O=C([O-])C1(O)CC(O)C(O)C(O)C1.O=C([O-])C1(O)CC(O)C(O)C(O)C1.[Fe+3] (stereo not drawn) [FeQ, Ferric Quinate]
Campylobacter
  Campylobacter cfu/g of caeca at day 42 (FIG. 14): positive effect on reducing Campylobacter infection
[1]; 0-25 d of age
  AFI: 1.898 kg
  AWG: 1.422^c kg
  MFCR: 1.335^a feed:gain
[1]; 0-35 d of age
  AFI/bird/period: 3.815 kg
  AWG/bird/period: 0.668 kg
  MFCR: 1.458^a feed:gain
[1]; 0-42 d of age
  AFI/bird/period: 5.279 kg
  AWG/bird/period: 3.448^ab kg
  MFCR: 1.547^a feed:gain
[1]; 35 to 42 d of age
  AFI: 1.464 kg
  AWG: 0.790 kg
  MFCR: 1.864 feed:gain
[1]; T7 0.22 g Q-PLEX/kg feed
  ABW (average body weight/pen) 1 d: 0.040 kg
  ABW (average body weight/pen) 11 d: 0.350^b kg
  ABW (average body weight/pen) 20 d: 0.968 kg
  ABW (average body weight/pen) 25 d: 1.463^c kg
  ABW (average body weight/pen) 28 d: 1.836^b kg
  ABW (average body weight/pen) 30 d: 2.031^b kg
  ABW (average body weight/pen) 35 d: 2.698^ab kg
  ABW (average body weight/pen) 42 d: 3.488^ab kg
  AFI (mean feed intake/pen) 1 to 11 d: 0.357^b kg
  AFI (mean feed intake/pen) 11 to 20 d: 0.836^ab kg
  AFI (mean feed intake/pen) 11 to 25 d: 1.541 kg
  AFI (mean feed intake/pen) 20 to 35 d: 2.622 kg
  AFI (mean feed intake/pen) 25-42 d: 3.381 kg
  AFI/bird/period 20-25 d: 0.705 kg
  AFI/bird/period 25-35 d: 1.917 kg
  AWG (mean weight gain/pen) 1 to 11 d: 0.310^b kg
  AWG (mean weight gain/pen) 11 to 20 d: 0.618 kg
  AWG (mean weight gain/pen) 11 to 25 d: 1.113^b kg
  AWG (mean weight gain/pen) 20 to 35 d: 1.730^ab kg
  AWG (mean weight gain/pen) 25-42 d: 2.026^ab kg
  AWG/bird/period 20-25 d: 0.495 kg
  AWG/bird/period 25-35 d: 1.236^abc kg
  MFCR 1 to 11 d: 1.150^x feed:gain
  MFCR 11 to 20 d: 1.357^ab feed:gain
  MFCR 11 to 25 d: 1.387^a feed:gain
  MFCR 20-25 d: 1.430^a feed:gain
  MFCR 20 to 35 d: 1.554^a feed:gain
  MFCR 25-35 d: 1.607^ab feed:gain
  MFCR 25-42 d: 1.703^ab feed:gain
[1]; all treatment groups, in feed
  MFCR at day 42 compared to control group (FIG. 13): improved MFCR values
  average body weight at day 42 compared with control group (FIG. 12): higher average body weight
[2]
  C. jejuni biofilm formation on plastic coated UV beads (FIG. 9): inhibited C. jejuni biofilm formation
